{"source": "patent US12043670B2", "about": "“Anti-BCMA antibody-drug conjugates and methods of use” (Eisai R&D Management Co., Ltd., priority 2020, dated 2024)", "key": {"PAMPA permeability": {"test": "PAMPA permeability", "format": "in vitro ADME", "conditions": "read-out: Stability, Mean, Perm PAMPA"}, "Caco-2 permeability": {"test": "Caco-2 permeability", "format": "in vitro ADME", "conditions": "human", "protocol": "Caco-2 cells were cultured for 21 days in transwell 24-well plates at 37° C., 95% humidity, 5% CO2. Integrity of cell monolayer was confirmed by TEER (transepithelial electrical resistance) and Lucifer yellow. Payloads were spiked in duplicate at 10 μM, separately, on both sides of the cell monolayer. Permeability rates from the apical to basolateral (A-B) direction and the basolateral to apical (B-A) direction were determined by sampling aliquots from both chambers immediately after treatment (t=0) and following incubation for 2 hours. Samples were protein precipitated with organic solvent containing internal standard and analyzed by LC-MS/MS (SCIEX; API 5500). The area ratio responses of payload/internal standard over time in both directions were used to generate permeability (cm/sec) values. Efflux ratio was calculated by dividing B-A/A-B. Control compounds for low and high permeability and efflux behaved as expected."}, "[1]": {"tested_on": "splicing of Ad2.1 pre-mRNA in HeLa nuclear extract", "test": "In vitro splicing (IVS), qPCR readout, Ad2.1 substrate", "format": "biochemical", "protocol": "(§1) To evaluate payload activity in a cell-free system, an in vitro splicing assay was performed. The payloads were incubated with nuclear extracts and pre-mRNA substrate minigenes.\n(§2) HeLa nuclear extract preparation: HeLa S3 cell pellets were resuspended in hypotonic buffer (10 mM HEPES pH 7.9, 1.5 mM MgCl2, 10 mM KCl, 0.2 mM PMSF, 0.5 mM DTT) and the suspension was brought up to a total of 5 packed cell volume (PCV). After centrifugation, the supernatant was discarded, and the cells were brought up to 3 PCV with hypotonic buffer and incubated on ice for 10 min. Cells were lysed using a dounce homogenizer and then centrifuged. The supernatant was discarded, and the pellet was resuspended with ½ packed nuclear volume (PNV) of low salt buffer (20 mM HEPES pH 7.9, 1.5 mM MgCl2, 20 mM KCl, 0.2 mM EDTA, 25% glycerol, 0.2 mM PMSF, 0.5 mM DTT), followed by ½ PNV of high salt buffer (same as low salt buffer except 1.4 M KCl). The nuclei were gently mixed for 30 min before centrifuging. The supernatant (nuclear extract) was then dialyzed into storage buffer (20 mM HEPES pH 7.9, 100 mM KCl, 0.2 mM EDTA, 20% glycerol, 0.2 mM PMSF, 0.5 mM DTT). Protein concentration was determined using NanoDrop 8000 UV-Vis spectrophotometer (ThermoFisher Scientific). […]"}, "MM1.S cells": {"tested_on": "MM1.S cells", "test": "CellTiter-Glo cell viability, MM1.S", "format": "cell-based, human", "conditions": "MM1.S, 96 h"}, "[2]": {"tested_on": "splicing of Ad2.2 pre-mRNA in HeLa nuclear extract", "test": "In vitro splicing (IVS), qPCR readout, Ad2.2 substrate", "format": "biochemical", "protocol": "as §1, §2"}, "MOLP8 cells": {"tested_on": "MOLP8 cells", "test": "CellTiter-Glo cell viability, MOLP8", "format": "cell-based, human"}, "SF3b complex": {"molecular_target": "T1, SF3b complex (Homo sapiens, UniProt O75533+Q7RTV0)", "T1 construct": "endogenous in cells; host or cells: nuclear extracts", "test": "SF3B1 binding / scintillation proximity assay (SPA)", "conditions": "competition with 2.5 nM [3H]-pladienolide B probe", "protocol": "A scintillation proximity assay was performed to measure the binding affinity of compounds (“payloads”) to the SF3b complex. Batch immobilization of anti-SF3B1 antibody (MBL) to anti-mouse PVT SPA scintillation beads (PerkinElmer) was prepared. For every 2.5 mg of nuclear extracts, 5 μg of anti-SF3B1 antibody and 1.5 mg of beads were mixed in 150 μL PBS. The antibody-bead mixture was incubated for 30 min at room temperature (RT) and centrifuged at 18,000 g for 5 min. 150 μL PBS was used to resuspend every 1.5 mg antibody-bead mixture. The beads were suspended and added to the prepared nuclear extracts. The slurry was incubated for 2 hours at 4° C. with gentle mixing. The beads were then collected by centrifuging at 18,000 g for 5 min, and washed twice with PBS+0.1% Triton X-100. After a final centrifugation step, every 1.5 mg of beads was suspended with 150 μL of PBS. SF3b complexes were tested for [^3H]-labeled pladienolide B probe binding ([^3H]-PB), synthesized as previously described (Kotake et al. (2007) Nat Chem Biol. 3(9):570-5). 100 μL binding reactions were prepared with 50 μL bead slurry and by adding varying concentrations of PB or PB-OH, and after 30 min pre-incubation, 2.5 nM of [^3H]-PB was added. The mixture was incubated for 30 min, and luminescence signals were read using a MicroBeta2 Plate Counter (PerkinElmer). […]"}, "OPM2 cells": {"tested_on": "OPM2 cells", "test": "CellTiter-Glo cell viability, OPM2 (normal serum)", "format": "cell-based, human"}, "MM1.R cells": {"tested_on": "MM1.R cells", "test": "CellTiter-Glo cell viability, MM1.R", "format": "cell-based, human", "conditions": "96 h"}}, "data": [{"molecule": "CC[C@H](O)[C@@H](C)[C@H]1O[C@@H]1C[C@@](C)(O)/C=C/C=C(\\C)[C@H]1OC(=O)C[C@H](O)CC[C@@](C)(OC(C)=O)[C@@H](OC(=O)N2CCNCC2)/C=C/[C@@H]1C", "note": "[D2, (2S,3S,6S,7R,10R,E)-7-acetoxy-10-hydroxy-2-((R,2E,4E)-6-hydroxy-7-((2R,3R)-3-((2R,3S)-3-hydroxypentan-2-yl)oxiran-2-yl)-6-methylhepta-2,4-dien-2-yl)-3,7-dimethyl-12-oxooxacyclododec-4-en-6-ylpiperazine-1-carboxylate]", "values": [{"measurement": "Papp", "setting": "PAMPA permeability", "value": "< 0.1", "unit": "×10⁻⁶ cm/s"}, {"measurement": "efflux ratio at 2 h, 10 μM", "setting": "Caco-2 permeability; B-A/A-B", "value": 9.4}, {"measurement": "Papp A→B at 2 h, 10 μM", "setting": "Caco-2 permeability; apical to basolateral, 10 μM, 2 hours, read-out: Permeability, Mean, Caco-2 A-B Perm", "value": 0.94, "unit": "×10⁻⁶ cm/s"}, {"measurement": "Papp B→A at 2 h, 10 μM", "setting": "Caco-2 permeability; basolateral to apical, 10 μM, 2 hours, read-out: Permeability, Mean, Caco-2 B-A Perm", "value": 0.1, "unit": "×10⁻⁶ cm/s"}, {"measurement": "IC50", "setting": "[1]", "value": 27.3, "unit": "nM"}, {"measurement": "GI50", "setting": "MM1.S cells; Homo sapiens, read-out: CTGlo Mean GI50 MM1.S 96 h", "value": 1.69, "unit": "nM"}, {"measurement": "CTGlo Mean LD50 MM1.S 96 h", "setting": "MM1.S cells; payload alone", "value": 7.74, "unit": "nM"}, {"measurement": "IC50", "setting": "[2]", "value": 119, "unit": "nM"}, {"measurement": "GI50", "setting": "MOLP8 cells; Homo sapiens, MOLP-8, 96 h, read-out: CTGlo Mean GI50 MOLP8 96 h", "value": 1.15, "unit": "nM"}, {"measurement": "CTGlo Mean LD50 MOLP8 96 h", "setting": "MOLP8 cells; payload alone, MOLP8, 96 h", "value": 12.99, "unit": "nM"}, {"measurement": "IC50", "setting": "SF3b complex", "value": 12.6, "unit": "nM"}, {"measurement": "GI50", "setting": "OPM2 cells; Homo sapiens, OPM-2, 96 h, read-out: CTGlo Mean GI50 OPM2 96 h", "value": 1.69, "unit": "nM"}, {"measurement": "CTGlo Mean LD50 OPM2 96 h", "setting": "OPM2 cells; payload alone, OPM2, 96 h", "value": 7.74, "unit": "nM"}, {"measurement": "GI50", "setting": "MM1.R cells; Homo sapiens, MM.1R, read-out: CTGlo Mean GI50 MM1.R 96 h", "value": 7.59, "unit": "nM"}, {"measurement": "CTGlo Mean LD50 MM1.R 96 h", "setting": "MM1.R cells; payload alone, MM1.R", "value": 21.4, "unit": "nM"}]}]}
